{"source": "ChEMBL document CHEMBL1821627", "about": "“Medicinal chemistry as a conduit for the modulation of quorum sensing” (J Med Chem, 2010)", "key": {"[1]": {"assay": "Inhibition of quorum sensing regulated bioluminescence in Vibrio harveyi"}, "[2]": {"assay": "Inhibition of quorum sensing Salmonella Typhimurium by beta-galactosidase transcription assay in presence of 50 uM DPD", "design": "species or system Salmonella enterica subsp. enterica serovar Typhimurium"}, "[3]": {"assay": "Inhibition of Staphylococcus aureus Quorum sensing system AgrC-II activation after 60 to 90 minutes by beta-lactamase reporter assay", "details": "read-out: IC50"}, "[4]": {"assay": "Inhibition of Staphylococcus aureus Quorum sensing system AgrC-I activation after 60 to 90 minutes by beta-lactamase reporter assay", "details": "read-out: IC50"}, "[5]": {"target": "T1, Autoinducer 1 sensor kinase/phosphatase LuxN (Vibrio harveyi, UniProt P0C5S6)", "T1 sequence (P0C5S6 whole entry)": "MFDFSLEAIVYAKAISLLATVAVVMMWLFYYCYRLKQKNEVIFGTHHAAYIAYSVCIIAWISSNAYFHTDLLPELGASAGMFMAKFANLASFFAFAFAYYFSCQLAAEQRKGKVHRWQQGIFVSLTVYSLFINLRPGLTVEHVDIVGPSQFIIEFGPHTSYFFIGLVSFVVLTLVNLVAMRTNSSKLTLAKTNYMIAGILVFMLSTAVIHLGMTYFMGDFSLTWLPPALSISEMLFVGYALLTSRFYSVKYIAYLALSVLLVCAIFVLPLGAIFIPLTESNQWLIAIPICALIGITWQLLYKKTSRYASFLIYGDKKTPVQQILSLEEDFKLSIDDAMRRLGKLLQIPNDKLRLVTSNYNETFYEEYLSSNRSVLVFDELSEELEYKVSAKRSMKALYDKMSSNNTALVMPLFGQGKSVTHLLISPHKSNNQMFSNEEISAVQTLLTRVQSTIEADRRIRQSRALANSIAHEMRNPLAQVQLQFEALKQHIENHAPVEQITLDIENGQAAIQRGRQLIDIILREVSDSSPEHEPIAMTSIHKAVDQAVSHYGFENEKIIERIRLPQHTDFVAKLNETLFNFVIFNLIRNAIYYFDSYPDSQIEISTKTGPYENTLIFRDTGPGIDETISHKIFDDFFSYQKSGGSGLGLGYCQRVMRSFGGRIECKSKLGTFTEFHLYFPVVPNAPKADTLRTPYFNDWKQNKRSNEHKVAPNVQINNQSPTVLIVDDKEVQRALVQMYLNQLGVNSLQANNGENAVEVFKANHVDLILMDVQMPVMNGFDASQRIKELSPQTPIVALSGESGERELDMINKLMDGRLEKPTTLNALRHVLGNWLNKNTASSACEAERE", "assay": "Inhibition of LuxN-dependent bioluminescence in Vibrio harveyi"}, "[6]": {"test_system": "Salmonella enterica subsp. enterica serovar Typhimurium", "assay": "Ratio of compound IC50 to DPD IC50 for Salmonella Typhimurium quorum sensing system"}, "[7]": {"assay": "Induction of quorum sensing activity in Pseudomonas aeruginosa assessed as maximal induction of LasR-dependent yellow fluorescent protein emission by luminescence assay"}, "[8]": {"assay": "Inhibition of quorum sensing in Pseudomonas aeruginosa assessed as inhibition of LasR-dependent yellow fluorescent protein emission by luminescence assay"}, "[9]": {"assay": "Inhibition of autoinducer-stimulated quorum sensing regulated bioluminescence in Vibrio fischeri by luminescence assay", "design": "species or system Aliivibrio fischeri"}, "[10]": {"test_system": "Vibrio harveyi", "assay": "Induction of quorum sensing regulated bioluminescence in Vibrio harveyi by luminescence assay"}, "[11]": {"target": "T2, Transcriptional activator protein LasR (Pseudomonas aeruginosa (strain ATCC 15692 / PAO1 / 1C / PRS 101 / LMG12228), UniProt P25084)", "T2 sequence (P25084 whole entry)": "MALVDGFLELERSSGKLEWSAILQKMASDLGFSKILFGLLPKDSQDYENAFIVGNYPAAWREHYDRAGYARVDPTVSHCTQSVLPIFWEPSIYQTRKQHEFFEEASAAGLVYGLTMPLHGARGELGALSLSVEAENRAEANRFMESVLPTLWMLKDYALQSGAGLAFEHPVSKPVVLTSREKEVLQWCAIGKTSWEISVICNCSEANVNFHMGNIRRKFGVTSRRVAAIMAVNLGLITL", "assay": "Antagonist activity at Pseudomonas aeruginosa LasR receptor assessed as inhibition of bioluminescence by reporter gene assay", "type": "functional"}, "[12]": {"test_system": "Chromobacterium violaceum", "assay": "In vivo inhibition of violacein production in Chromobacterium violaceum", "type": "functional, organism-based"}, "[13]": {"target": "T2, Transcriptional activator protein LasR", "assay": "Antagonist activity at Pseudomonas aeruginosa LasR receptor expressed in Escherichia coli in presence of 7.5 nM natural auto-inducer 3-oxo-C12-HSL", "type": "functional"}}, "note": "Where a SMILES comes first, the peptide text is derived from it. Bridges are numbered along the chain shown (N, C = ends). [ ]: non-standard residue; d: D form. Ava = NCCCCC(=O)O; Mpa = O=C(O)CCS", "data": [{"smiles": "NC(=S)CS(=O)(=O)c1cccs1", "values": [{"measurement": "IC50", "setting": "[1]", "result": 35, "unit": "µM"}]}, {"smiles": "CCN(CC)C(=S)CS(=O)(=O)c1cccs1", "values": [{"measurement": "IC50", "setting": "[1]", "result": 138, "unit": "µM"}]}, {"smiles": "CCCCCCC(=O)C(=O)[C@@H](O)CO", "values": [{"measurement": "IC50", "setting": "[2]", "result": 24.9, "unit": "µM"}]}, {"smiles": "CC(C)C[C@@H]1NC(=O)[C@H](CO)NC(=O)[C@H](CO)NC(=O)CCSC(=O)[C@H](Cc2ccccc2)NC1=O", "note": "([Mpa]SSLF; thioester 1-C)", "values": [{"measurement": "IC50", "setting": "[3]", "result": 47.3, "unit": "µM"}, {"measurement": "IC50", "setting": "[4]", "result": 1.68, "unit": "µM"}]}, {"smiles": "O=C(c1ccc(Cl)cc1)c1ccc(S(=O)(=O)c2ccc(Cl)cc2)cc1", "values": [{"measurement": "IC50", "setting": "[5]", "result": 2.6, "unit": "µM"}]}, {"smiles": "O=c1ccc2ccc(O)c(O)c2o1", "note": "[DAPHNETIN]", "values": [{"measurement": "IC50", "setting": "[1]", "result": 12, "unit": "µM"}]}, {"smiles": "CC(=O)N[C@H]1CSC(=O)[C@H](Cc2ccccc2)NC(=O)[C@H](CC(C)C)NC(=O)CNC(=O)[C@H](CO)NC1=O", "note": "(Ac-CSGLF; thioester 1-C)", "values": [{"measurement": "IC50", "setting": "[3]", "result": 0.194, "unit": "µM"}, {"measurement": "IC50", "setting": "[4]", "result": 0.04, "unit": "µM"}]}, {"smiles": "CCCCC(=O)C(=O)[C@@H](O)CO", "values": [{"measurement": "IC50", "setting": "[2]", "result": 5.04, "unit": "µM"}, {"measurement": "Ratio IC50", "setting": "[6]", "result": "< 10"}]}, {"smiles": "Cc1cc(Br)cc(CNC(=O)c2ccccc2Cl)c1OC(=O)c1ccc(Cl)cc1Cl", "values": [{"measurement": "EC50", "setting": "[7]", "result": 0.92, "unit": "µM"}]}, {"smiles": "CCOC(=S)CS(=O)(=O)c1cccs1", "values": [{"measurement": "IC50", "setting": "[1]", "result": 22, "unit": "µM"}]}, {"smiles": "CC(C)OC(=O)CSc1nc2ccccc2[nH]1", "values": [{"measurement": "IC50", "setting": "[5]", "result": 62.3, "unit": "µM"}]}, {"smiles": "COC(=O)c1ccc(B(O)O)cc1", "values": [{"measurement": "IC50", "setting": "[1]", "result": 5, "unit": "µM"}]}, {"smiles": "CCCCCCCCCCCCn1nnc(CC(=O)O)n1", "values": [{"measurement": "IC50", "setting": "[8]", "result": 0.03, "unit": "µM"}]}, {"smiles": "CCCCCCCCC(=O)N[C@H]1CCOC1=O", "values": [{"measurement": "IC50", "setting": "[9]", "result": 0.0124, "unit": "µM"}]}, {"smiles": "O=C1[C@@H](O)COC1(O)C(F)(F)F", "note": "(some centres not stated)", "values": [{"measurement": "EC50", "setting": "[10]", "result": 30, "unit": "µM"}]}, {"smiles": "[N-]=[N+]=NCCCCC(=O)C(=O)[C@@H](O)CO", "values": [{"measurement": "IC50", "setting": "[2]", "result": 20.3, "unit": "µM"}]}, {"smiles": "CCCC(=O)CC(=O)N[C@H]1CCSC1=O", "values": [{"measurement": "IC50", "setting": "[9]", "result": 0.131, "unit": "µM"}]}, {"smiles": "O=C(CCCCCCCCN=C=S)CC(=O)N[C@H]1CCOC1=O", "values": [{"measurement": "IC50", "setting": "[11]", "result": 300, "unit": "µM"}]}, {"smiles": "CCCC(=O)C(=O)[C@@H](O)CO", "values": [{"measurement": "IC50", "setting": "[2]", "result": 5.3, "unit": "µM"}, {"measurement": "Ratio IC50", "setting": "[6]", "result": "< 10"}]}, {"smiles": "OB(O)c1ccc(OCc2ccccc2)cc1", "values": [{"measurement": "IC50", "setting": "[1]", "result": 4, "unit": "µM"}]}, {"smiles": "CC(=O)N1CCc2ccc(S(=O)(=O)NC(CC(C)C)C(=O)NCc3ccc(Cl)cc3)cc21", "note": "(configuration not stated)", "values": [{"measurement": "IC50", "setting": "[5]", "result": 2.7, "unit": "µM"}]}, {"smiles": "CC(=O)N[C@H]1CSC(=O)[C@H](Cc2ccccc2)NC(=O)[C@H](CC(C)C)NC(=O)CCCCNC1=O", "note": "(Ac-C[Ava]LF; thioester 1-C)", "values": [{"measurement": "IC50", "setting": "[3]", "result": 507, "unit": "µM"}, {"measurement": "IC50", "setting": "[4]", "result": 1.14, "unit": "µM"}]}, {"smiles": "CCOC(=O)CS(=O)(=O)c1ccc(-c2cncc3ccccc23)cc1", "values": [{"measurement": "IC50", "setting": "[1]", "result": "> 400", "unit": "µM"}]}, {"smiles": "O=C(CCCCCCCCCCN=C=S)CC(=O)N[C@H]1CCOC1=O", "values": [{"measurement": "IC50", "setting": "[11]", "result": 45.2, "unit": "µM"}]}, {"smiles": "CC[C@H](C)[C@@H]1NC(=O)[C@H](Cc2ccccc2)NC(=O)[C@H](C)NC(=O)[C@@H](NC(=O)[C@@H](NC(=O)[C@H](CO)NC(=O)[C@@H](N)Cc2ccc(O)cc2)[C@@H](C)O)CSC(=O)[C@H](CSC)NC1=O", "note": "(H-YSTCAFIC(Me); thioester 4-C)", "values": [{"measurement": "IC50", "setting": "[3]", "result": 0.004, "unit": "µM"}, {"measurement": "IC50", "setting": "[4]", "result": 0.021, "unit": "µM"}]}, {"smiles": "O=C(CCCCCCCCCN=C=S)CC(=O)N[C@H]1CCOC1=O", "values": [{"measurement": "IC50", "setting": "[11]", "result": 113, "unit": "µM"}]}, {"smiles": "CC(C)(c1ccccc1)c1ccc(OCC(=O)NC2CCCC2)cc1", "values": [{"measurement": "IC50", "setting": "[5]", "result": 2.4, "unit": "µM"}]}, {"smiles": "O=C(Oc1c(Br)cc(Br)cc1CNC(=O)c1ccccc1Cl)c1ccc(F)cc1", "values": [{"measurement": "EC50", "setting": "[7]", "result": 0.24, "unit": "µM"}]}, {"smiles": "CCC(=O)C(=O)[C@@H](O)CO", "values": [{"measurement": "IC50", "setting": "[2]", "result": "> 50", "unit": "µM"}]}, {"smiles": "CC(=O)N[C@H]1CSC(=O)[C@H](Cc2ccccc2)NC(=O)[C@H](CC(C)C)NC(=O)[C@H](CO)NC(=O)CNC1=O", "note": "(Ac-CGSLF; thioester 1-C)", "values": [{"measurement": "IC50", "setting": "[3]", "result": 1.16, "unit": "µM"}, {"measurement": "IC50", "setting": "[4]", "result": 0.189, "unit": "µM"}]}, {"smiles": "O=C(CCCOc1ccc(Cl)cc1)NC1CCSC1=O", "note": "(configuration not stated)", "values": [{"measurement": "IC50", "setting": "[12]", "result": 0.723, "unit": "µM"}]}, {"smiles": "NC(=S)CS(=O)(=O)c1ccccn1", "values": [{"measurement": "IC50", "setting": "[1]", "result": 35, "unit": "µM"}]}, {"smiles": "Oc1cccc(O)c1O", "note": "[PYROGALLOL]", "values": [{"measurement": "IC50", "setting": "[1]", "result": 2, "unit": "µM"}]}, {"smiles": "O=C(Cc1ccc(I)cc1)N[C@H]1CCOC1=O", "values": [{"measurement": "IC50", "setting": "[13]", "result": 1.72, "unit": "µM"}]}, {"smiles": "O=C(CCCCCCCCCNC(=O)CBr)CC(=O)N[C@H]1CCOC1=O", "values": [{"measurement": "IC50", "setting": "[11]", "result": 100, "unit": "µM"}]}]}
